Laboratory results published in patent publication US20180177890A1, “LIGAND-CYTOTOXIC DRUG CONJUGATE, PREPARATION METHOD THEREOF, AND USE THEREOF” (priority 2015, published 2018).
Numbered stars: 1 amine (or outer) side, 2 acyl side, 3 side chain; on linkers, the order of the positions; unused ones are H or OH. Square brackets hold non-standard residues; d marks the D form. Peptide text beside a SMILES is read from it. X1 = CO[C@H]([C@@H](C)C(=O)[*:2])[C@@H]1C[C@@H]2C[C@@H]2N1[*:1]; X2 = CO[C@H]([C@@H](C)C(=O)[*:2])[C@@H]1CC2(CC2)CN1[*:1]; X4 = C=C1C[C@@H]([C@H](OC)[C@@H](C)C(=O)[*:2])N([*:1])C1; Dolaproine = CO[C@@H]([C@@H]1CCCN1)[C@@H](C)C(=O)O; Phe(2,4-Cl2) = N[C@@H](Cc1ccc(Cl)cc1Cl)C(=O)O; Dil = CC[C@H](C)[C@H](NC)[C@@H](CC(=O)O)OC; Phe(3-Cl) = N[C@@H](Cc1cccc(Cl)c1)C(=O)O; Phe(3-F) = N[C@@H](Cc1cccc(F)c1)C(=O)O; Phe(4-Me) = Cc1ccc(C[C@H](N)C(=O)O)cc1; Phe(2-F) = N[C@@H](Cc1ccccc1F)C(=O)O; 2Thi = N[C@@H](Cc1cccs1)C(=O)O; NMeV = CN[C@H](C(=O)O)C(C)C

How the values were obtained:
A549 tumor cells = test: In vitro tumor cell proliferation inhibition test (CCK-8), A549; format: cell-based; settings: Homo sapiens, A549, 76 hours incubation
Protocol: (§1) The objective of this experiment is to test the in vitro inhibition effect of the formula (D) according to the present invention on the proliferation of HepG2 tumor cells (human hepatocellular carcinoma cells, Chinese Academy of Sciences cell bank, No. #TCHu 72) and A549 tumor cells (human lung adenocarcinoma, Chinese Academy of Sciences cell bank, No. #TCHu150). The cells were treated with different concentrations of the compound in vitro. After 76 hours incubation, the cell proliferation was detected by CCK-8 reagent (Cell Counting Kit-8, Dojindo, No. CK04), and the activity of the compound in vitro was evaluated according to the IC50 value.
(§2) The following is an example of a method for in vitro proliferation inhibition test of HepG2 cells for the purpose of exemplifying the test of the compounds according to the present invention for the proliferation inhibitory activity on tumor cells in vitro. This method is also applicable to, but not limited to, the in vitro proliferation inhibition tests on other tumor cells.
(§3) The compound was dissolved with DMSO (dimethylsulfoxide, Shanghai Titan Technology Co., Ltd.) to prepare a storage solution having an initial concentration of 10 mM.
(§4) 10 μl of 10 mM compound was added to the wells of the first column of a U-shaped bottom 96-well plate (sample plate 1), and 90 μl of DMSO was added to each compound sample well of the first column, i.e., the stock solution was diluted 10 times as the starting point. Then, 3-fold gradient dilutions were performed, with each compound concentration […]. The diluent was DMSO solution. 60 μl of 100% DMSO was added to 12th column and 20 μl of 1 mM positive drug control was added to 11th column.
(§5) In a new U-shaped bottom 96-well plate (sample plate 2), each sample from the sample plate 1 was diluted 20 times with the complete medium. Then, in another new U-shaped bottom 96-well plate (sample plate 3), each well sample from the sample plate 2 was subjected to a final 10-fold dilution.
(§6) After the cell pre-culture was completed, the 96-well cell culture plate was removed and the supernatant was discarded. Each sample dilution in the 96-well sample plate 3 was successively added to a 96-well cell culture plate at 100 μl/well. Each compound sample was tested in duplicate at each concentration. […] After completion of the loading operation, the 96-well cell culture plate was incubated at 37° C. for about 76 hours in a 5% CO2 incubator.
(§7) The 96-well cell culture plate was taken and CCK-8 was added to each well at […]. The cell culture plate was gently pat and mixed for more than 10 times and incubated at 37° C. for 2 hours in a 5% CO2 incubator.
(§8) The 96-well cell culture plate was taken and placed in a microplate reader (PerkinElmer, VICTOR 3) and the absorbance at 450 nm was measured using the microplate reader.
In accordance with the above procedure, the inhibition activity of the compound according to the present invention on the proliferation of A549 tumor cells in vitro was tested. The cell culture medium was also DMEM/F12.
(§9) Data was analyzed with Microsoft Excel and Graphpad Prism 5.

HepG2 tumor cells = test: In vitro tumor cell proliferation inhibition test (CCK-8), HepG2; format: cell-based; settings: Homo sapiens, HepG2, 76 hours incubation
Protocol: as §1, §2
HepG2 cells in logarithmic growth phase were washed with PBS (phosphate buffer, ThermoFisher) once, and added with 2-3 ml trypsin (0.25% trypsin-EDTA (1×), Gibico, Life Technologies) to digest for 2-3 min. Then, 10-15 ml of cell culture medium (DMEM/F12 medium, Invitrogen; 10% (v/v)) was added after the cells were completely digested. The digested HepG2 cells were eluted, and centrifuged at 1000 rpm for 3 min. The supernatant was discarded, and then 10-20 ml of cell culture medium were added to resuspend the cells to prepare a single cell suspension.
The HepG2 single cell suspension was mixed and the cell density was adjusted to 6×10^4 cells/ml with cell culture medium. The density-adjusted cell suspension was mixed uniformly and added to a 96-well cell culture plate at 100 μl/well. The plates were incubated in a 5% CO2 incubator at 37° C. for 18-20 hours.
as §3, §4, §5, §6, §7, §8, §9

| SMILES | IC50 (A549 tumor cells) | IC50 (HepG2 tumor cells) |
| --- | --- | --- |
| C=C1C[C@@H]([C@H](OC)[C@@H](C)C(=O)N[C@@H](Cc2ccccc2)C(=O)O)N(C(=O)C[C@@H](OC)[C@H]([C@@H](C)CC)N(C)C(=O)[C@@H](NC(=O)[C@@H](NC)C(C)C)C(C)C)C1 [Compound 9, (S)-2-((2R,3R)-3-((S)-1-((3R,4S,5S)-4-((S)—N,3-dimethyl-2-((S)-3-methyl-2-(methylamino)butanamido)butanamido)-3-methoxy-5-methylheptanoyl)-4-methylenepyrrolidin-2-yl)-3-methoxy-2-methylpropanamido)-3-phenylpropanoic acid] (H-[NMeV]V[Dil][X4]F-OH) | 114 nM | 55 nM |
| CC[C@H](C)[C@@H]([C@@H](CC(=O)N1CC2(CC2)C[C@H]1[C@H](OC)[C@@H](C)C(=O)N[C@@H](Cc1ccccc1F)C(=O)O)OC)N(C)C(=O)[C@@H](NC(=O)[C@@H](NC)C(C)C)C(C)C [Compound 11, (S)-2-((2R,3R)-3-((S)-5-((3R,4S,5S)-4-((S)—N,3-dimethyl-2-((S)-3-methyl-2-(methylamino)butanamido)butanamido)-3-methoxy-5-methylheptanoyl)-5-azaspiro[2.4]heptan-6-yl)-3-methoxy-2-methylpropanamido)-3-(2-fluorophenyl)propanoic acid] (H-[NMeV]V[Dil][X2][Phe(2-F)]-OH) | 27.2 nM | 6.6 nM |
| CC[C@H](C)[C@@H]([C@@H](CC(=O)N1CC2(CC2)C[C@H]1[C@H](OC)[C@@H](C)C(=O)N[C@@H](Cc1ccccc1)C(=O)O)OC)N(C)C(=O)[C@@H](NC(=O)[C@@H](NC)C(C)C)C(C)C [Compound 13, (S)-2-((2R,3R)-3-((S)-5-((3R,4S,5S)-4-((S)—N,3-dimethyl-2-((S)-3-methyl-2-(methylamino)butanamido)butanamido)-3-methoxy-5-methylheptanoyl)-5-azaspiro[2.4]heptan-6-yl)-3-methoxy-2-methylpropanamido)-3-phenylpropanoic acid] (H-[NMeV]V[Dil][X2]F-OH) | 30.2 nM | 11.7 nM |
| CC[C@H](C)[C@@H]([C@@H](CC(=O)N1[C@H]2C[C@H]2C[C@H]1[C@H](OC)[C@@H](C)C(=O)N[C@@H](Cc1ccc(C)cc1)C(=O)O)OC)N(C)C(=O)[C@@H](NC(=O)[C@@H](NC)C(C)C)C(C)C [Compound 15, (S)-2-((2R,3R)-3-((1S,3S,5S)-2-((3R,4S,5S)-4-((S)—N,3-dimethyl-2-((S)-3-methyl-2-(methylamino)butanamido)butanamido)-3-methoxy-5-methylheptanoyl)-2-azabicyclo[3.1.0]hexan-3-yl)-3-methoxy-2-methylpropanamido)-3-(p-tolyl)propanoic acid] (H-[NMeV]V[Dil][X1][Phe(4-Me)]-OH) | 75.5 nM | 47.5 nM |
| CC[C@H](C)[C@@H]([C@@H](CC(=O)N1[C@H]2C[C@H]2C[C@H]1[C@H](OC)[C@@H](C)C(=O)N[C@@H](Cc1cccs1)C(=O)O)OC)N(C)C(=O)[C@@H](NC(=O)[C@@H](NC)C(C)C)C(C)C [Compound 16, (S)-2-((2R,3R)-3-((1S,3S,5S)-2-((3R,4S,5S)-4-((S)—N,3-dimethyl-2-((S)-3-methyl-2-(methylamino)butanamido)butanamido)-3-methoxy-5-methylheptanoyl)-2-azabicyclo[3.1.0]hexan-3-yl)-3-methoxy-2-methylpropanamido)-3-(thiophen-2-yl)propanoic acid] (H-[NMeV]V[Dil][X1][2Thi]-OH) | 53 nM | 13.9 nM |
| CC[C@H](C)[C@@H]([C@@H](CC(=O)N1CCC[C@H]1[C@H](OC)[C@@H](C)C(=O)N[C@@H](Cc1ccccc1F)C(=O)O)OC)N(C)C(=O)[C@@H](NC(=O)[C@@H](NC)C(C)C)C(C)C [Compound 25, (S)-2-((2R,3R)-3-((S)-1-((3R,4S,5S)-4-((S)—N,3-dimethyl-2-((S)-3-methyl-2-(methylamino)butanamido)butanamido)-3-methoxy-5-methylheptanoyl)pyrrolidin-2-yl)-3-methoxy-2-methylpropanamido)-3-(2-fluorophenyl)propanoic acid] (H-[NMeV]V[Dil][Dolaproine][Phe(2-F)]-OH) | 200 nM | 175 nM |
| CC[C@H](C)[C@@H]([C@@H](CC(=O)N1CCC[C@H]1[C@H](OC)[C@@H](C)C(=O)N[C@@H](Cc1ccc(C)cc1)C(=O)O)OC)N(C)C(=O)[C@@H](NC(=O)[C@@H](NC)C(C)C)C(C)C [Compound 29, (S)-2-((2R,3R)-3-((S)-1-((3R,4S,5S)-4-((S)—N,3-dimethyl-2-((S)-3-methyl-2-(methylamino)butanamido)butanamido)-3-methoxy-5-methylheptanoyl)pyrrolidin-2-yl)-3-methoxy-2-methylpropanamido)-3-(p-tolyl)propanoic acid] (H-[NMeV]V[Dil][Dolaproine][Phe(4-Me)]-OH) | 1.8 nM | 58.6 nM |
| CC[C@H](C)[C@@H]([C@@H](CC(=O)N1CCC[C@H]1[C@H](OC)[C@@H](C)C(=O)N[C@@H](Cc1cccc(Cl)c1)C(=O)O)OC)N(C)C(=O)[C@@H](NC(=O)[C@@H](NC)C(C)C)C(C)C [Compound 31, (S)-3-(3-chlorophenyl)-2-((2R,3R)-3-((S)-1-((3R,4S,5S)-4-((S)—N,3-dimethyl-2-((S)-3-methyl-2-(methylamino)butanamido)butanamido)-3-methoxy-5-methylheptanoyl)pyrrolidin-2-yl)-3-methoxy-2-methylpropanamido)propanoic acid] (H-[NMeV]V[Dil][Dolaproine][Phe(3-Cl)]-OH) | 130 nM | 100 nM |
| CC[C@H](C)[C@@H]([C@@H](CC(=O)N1CCC[C@H]1[C@H](OC)[C@@H](C)C(=O)N[C@@H](Cc1cccc(F)c1)C(=O)O)OC)N(C)C(=O)[C@@H](NC(=O)[C@@H](NC)C(C)C)C(C)C [Compound 32, (S)-2-((2R,3R)-3-((S)-1-((3R,4S,5S)-4-((S)—N,3-dimethyl-2-((S)-3-methyl-2-(methylamino)butanamido)butanamido)-3-methoxy-5-methylheptanoyl)pyrrolidin-2-yl)-3-methoxy-2-methylpropanamido)-3-(3-fluorophenyl)propanoic acid] (H-[NMeV]V[Dil][Dolaproine][Phe(3-F)]-OH) | 13.5 nM | 17.4 nM |
| CC[C@H](C)[C@@H]([C@@H](CC(=O)N1CCC[C@H]1[C@H](OC)[C@@H](C)C(=O)N[C@@H](Cc1ccc(Cl)cc1Cl)C(=O)O)OC)N(C)C(=O)[C@@H](NC(=O)[C@@H](NC)C(C)C)C(C)C [Compound 33, (S)-3-(2,4-dichlorophenyl)-2-((2R,3R)-3-((S)-1-((3R,4S,5S)-4-((S)-N,3-dimethyl-2-((S)-3-methyl-2-(methylamino)butanamido)butanamido)-3-methoxy-5-methylheptanoyl)pyrrolidin-2-yl)-3-methoxy-2-methylpropanamido)propanoic acid] (H-[NMeV]V[Dil][Dolaproine][Phe(2,4-Cl2)]-OH) | 5 nM | 4.66 nM |
